Our source for the inhibition and IL-1β % inhibition values is patent publication US7297700B2, “Bicycloheteroaryl compounds as P2X7 modulators and uses thereof” (Renovis, Inc., priority 2005, dated 2007).

In general, inhibition refers to the change of the read-out against control, counted positive when it falls.

The first test deals with IL-1β release from THP-1 cells. Briefly: IL-1β Release Assay (Alternate Method), THP-1 cells. Particulars: Homo sapiens; at 0.3 μM; THP-1 cells; read-out: IL-1β % inhibition. The test is classed as cell-based, human. A digest of the protocol:
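IL-1β release, measured by ELISA, follows 45 min BzATP (250 uM final) stimulation of THP-1 cells given 30 min compound pretreatment. Cells were first primed 16 h with LPS and IFN-γ (100 ng/mL each), then 2 h with fresh LPS; inhibition expressed in percent after background correction.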
`O=C(CC12CC3CC(CC(C3)C1)C2)Nc1ncnc2c1CCN(C(=O)c1ccccc1)C2` [Compound 220]: the inhibition at 0.3 µM was over 75%.

Staying with this test, now noted: at 0.3 μM; THP-1 cells.
For `O=C(CC12CC3CC(CC(C3)C1)C2)Nc1ncnc2c1CCN(S(=O)(=O)c1ccccc1Cl)C2` [Compound 192], the IL-1β % inhibition result is listed as “+++ (compound exhibited 50-75% inhibition at 0.3 μM)”. As to `O=C(CC12CC3CC(CC(C3)C1)C2)Nc1ncnc2c1CCN(S(=O)(=O)c1ccc(F)c(Cl)c1)C2` [Compound 193], the IL-1β % inhibition result is listed as “+ (compound exhibited 0-25% inhibition at 0.3 μM)”. Take `O=C(CC12CC3CC(CC(C3)C1)C2)Nc1ncnc2c1CCN(S(=O)(=O)c1ccccc1-c1ccccc1)C2` [Compound 194]: the IL-1β % inhibition result is “++++ (compound exhibited 75% or greater inhibition at 0.3 μM)”. Regarding `O=C(CC12CC3CC(CC(C3)C1)C2)Nc1ncnc2c1CCN(S(=O)(=O)c1ccccc1C(F)(F)F)C2` [Compound 195], the IL-1β % inhibition entry is reported as “+ (compound exhibited 0-25% inhibition at 0.3 μM)”.

In the case of `COc1ccc(S(=O)(=O)N2CCc3c(ncnc3NC(=O)CC34CC5CC(CC(C5)C3)C4)C2)c(OC)c1` [Compound 197], the IL-1β % inhibition entry was “++++ (compound exhibited 75% or greater inhibition at 0.3 μM)”. The same measure, in the same setting: next, `Cc1nn(C)c(C)c1S(=O)(=O)N1CCc2c(ncnc2NC(=O)CC23CC4CC(CC(C4)C2)C3)C1` [Compound 198]: “+ (compound exhibited 0-25% inhibition at 0.3 μM)”; `Cc1ccccc1S(=O)(=O)N1CCc2c(ncnc2NC(=O)CC23CC4CC(CC(C4)C2)C3)C1` [Compound 199]: “++++ (compound exhibited 75% or greater inhibition at 0.3 μM)”. Take `O=C(CC12CC3CC(CC(C3)C1)C2)Nc1ncnc2c1CCN(S(=O)(=O)c1ccc3c(c1)OCCO3)C2` [Compound 200]: the IL-1β % inhibition result is “+ (compound exhibited 0-25% inhibition at 0.3 μM)”. Still for that read-out and setting: the entry for `O=C(CC12CC3CC(CC(C3)C1)C2)Nc1ncnc2c1CCN(S(=O)(=O)c1ccc(Cl)cc1F)C2` [Compound 202] is “++ (compound exhibited 25-50% inhibition at 0.3 μM)”. Same read-out and setting: the entry for `O=C(CC12CC3CC(CC(C3)C1)C2)Nc1ncnc2c1CCN(S(=O)(=O)c1cc(F)ccc1F)C2` [Compound 203] is “+ (compound exhibited 0-25% inhibition at 0.3 μM)”. The same measure, in the same setting: the entry for `O=C(CC12CC3CC(CC(C3)C1)C2)Nc1ncnc2c1CCN(S(=O)(=O)c1cc(Cl)ccc1Cl)C2` [Compound 204] is “+ (compound exhibited 0-25% inhibition at 0.3 μM)”; for `O=C(CC12CC3CC(CC(C3)C1)C2)Nc1ncnc2c1CCN(S(=O)(=O)c1cc(Cl)ccc1F)C2` [Compound 205] it is “+ (compound exhibited 0-25% inhibition at 0.3 μM)”; for `O=C(CC12CC3CC(CC(C3)C1)C2)Nc1ncnc2c1CCN(S(=O)(=O)c1c(F)cccc1F)C2` [Compound 206] it is “+ (compound exhibited 0-25% inhibition at 0.3 μM)”. Consider `Cc1ccc(S(=O)(=O)N2CCc3c(ncnc3NC(=O)CC34CC5CC(CC(C5)C3)C4)C2)cc1Cl` [Compound 207], for which the IL-1β % inhibition entry is reported as “+++ (compound exhibited 50-75% inhibition at 0.3 μM)”. As for `O=C(CC12CC3CC(CC(C3)C1)C2)Nc1ncnc2c1CCN(S(=O)(=O)c1cc(Cl)cc(Cl)c1)C2` [Compound 208], the IL-1β % inhibition entry was “+++ (compound exhibited 50-75% inhibition at 0.3 μM)”. Regarding `O=C(CC12CC3CC(CC(C3)C1)C2)Nc1ncnc2c1CCN(S(=O)(=O)c1ccc(F)cc1F)C2` [Compound 209], the IL-1β % inhibition result is on record as “++++ (compound exhibited 75% or greater inhibition at 0.3 μM)”. On the same count and under the same terms, next, `O=C(CC12CC3CC(CC(C3)C1)C2)Nc1ncnc2c1CCN(S(=O)(=O)c1c(Cl)cccc1Cl)C2` [Compound 210]: “+ (compound exhibited 0-25% inhibition at 0.3 μM)”. In the case of `O=C(CC12CC3CC(CC(C3)C1)C2)Nc1ncnc2c1CCN(S(=O)(=O)c1ccc(F)cc1Cl)C2` [Compound 211], the IL-1β % inhibition result is given as “+ (compound exhibited 0-25% inhibition at 0.3 μM)”. The same measure, in the same setting: the entry for `Cc1ccc(F)cc1S(=O)(=O)N1CCc2c(ncnc2NC(=O)CC23CC4CC(CC(C4)C2)C3)C1` [Compound 212] is “+++ (compound exhibited 50-75% inhibition at 0.3 μM)”. The same measure, in the same setting: next, `COc1ccc(C)cc1S(=O)(=O)N1CCc2c(ncnc2NC(=O)CC23CC4CC(CC(C4)C2)C3)C1` [Compound 214]: “+ (compound exhibited 0-25% inhibition at 0.3 μM)”; `O=C(CC12CC3CC(CC(C3)C1)C2)Nc1ncnc2c1CCN(S(=O)(=O)c1cccc(F)c1)C2` [Compound 215]: “+++ (compound exhibited 50-75% inhibition at 0.3 μM)”; `COc1ccc(OC)c(S(=O)(=O)N2CCc3c(ncnc3NC(=O)CC34CC5CC(CC(C5)C3)C4)C2)c1` [Compound 216]: “+++ (compound exhibited 50-75% inhibition at 0.3 μM)”. Consider `Cc1cc(C)cc(S(=O)(=O)N2CCc3c(ncnc3NC(=O)CC34CC5CC(CC(C5)C3)C4)C2)c1` [Compound 217], for which the IL-1β % inhibition result is reported as “+ (compound exhibited 0-25% inhibition at 0.3 μM)”. Same read-out and setting: next, `O=C(CC12CC3CC(CC(C3)C1)C2)Nc1ncnc2c1CCN(C(=O)c1c(Cl)cccc1Cl)C2` [Compound 218]: “++++ (compound exhibited 75% or greater inhibition at 0.3 μM)”; `CC(=O)N1CCc2c(ncnc2NC(=O)CC23CC4CC(CC(C4)C2)C3)C1` [Compound 219]: “+ (compound exhibited 0-25% inhibition at 0.3 μM)”; `O=C(CC12CC3CC(CC(C3)C1)C2)Nc1ncnc2c1CCN(C(=O)c1cccnc1Cl)C2` [Compound 222]: “+++ (compound exhibited 50-75% inhibition at 0.3 μM)”. On the same count and under the same terms, the entry for `CCC(=O)N1CCc2c(ncnc2NC(=O)CC23CC4CC(CC(C4)C2)C3)C1` [Compound 223] is “+ (compound exhibited 0-25% inhibition at 0.3 μM)”; for `COc1ccc(CC(=O)N2CCc3c(ncnc3NC(=O)CC34CC5CC(CC(C5)C3)C4)C2)cc1` [Compound 224] it is “+ (compound exhibited 0-25% inhibition at 0.3 μM)”; for `O=C(CC12CC3CC(CC(C3)C1)C2)Nc1ncnc2c1CCN(C(=O)Cc1ccccc1)C2` [Compound 225] it is “++ (compound exhibited 25-50% inhibition at 0.3 μM)”. Consider `O=C(CC12CC3CC(CC(C3)C1)C2)Nc1ncnc2c1CCN(C(=O)c1cccc(F)c1)C2` [Compound 227], for which the IL-1β % inhibition entry is recorded as “+ (compound exhibited 0-25% inhibition at 0.3 μM)”. Turning to `O=C(CC12CC3CC(CC(C3)C1)C2)Nc1ncnc2c1CCN(C(=O)c1ccc(OC(F)(F)F)cc1)C2` [Compound 228], the IL-1β % inhibition result is “+ (compound exhibited 0-25% inhibition at 0.3 μM)”. Same read-out and setting: next, `CCc1ccc(C(=O)N2CCc3c(ncnc3NC(=O)CC34CC5CC(CC(C5)C3)C4)C2)cc1` [Compound 229]: “+++ (compound exhibited 50-75% inhibition at 0.3 μM)”. The same measure, in the same setting: next, `Cc1cccc(C(=O)N2CCc3c(ncnc3NC(=O)CC34CC5CC(CC(C5)C3)C4)C2)c1` [Compound 230]: “++++ (compound exhibited 75% or greater inhibition at 0.3 μM)”. As for `O=C(CC12CC3CC(CC(C3)C1)C2)Nc1ncnc2c1CCN(C(=O)CCC1CCCC1)C2` [Compound 231], the IL-1β % inhibition entry was “++ (compound exhibited 25-50% inhibition at 0.3 μM)”.

Consider `O=C(CC12CC3CC(CC(C3)C1)C2)Nc1ncnc2c1CCN(C(=O)c1ccc(F)c(F)c1)C2` [Compound 232], for which the IL-1β % inhibition entry is listed as “+++ (compound exhibited 50-75% inhibition at 0.3 μM)”.

`O=C(CC12CC3CC(CC(C3)C1)C2)Nc1ncnc2c1CCN(C(=O)c1cccc(C(F)(F)F)c1)C2` [Compound 233]: the IL-1β % inhibition result was “++++ (compound exhibited 75% or greater inhibition at 0.3 μM)”. On the same count and under the same terms, next, `COc1ccc(C(=O)N2CCc3c(ncnc3NC(=O)CC34CC5CC(CC(C5)C3)C4)C2)cc1` [Compound 234]: “++ (compound exhibited 25-50% inhibition at 0.3 μM)”. On to `CC(CC(=O)N1CCc2c(ncnc2NC(=O)CC23CC4CC(CC(C4)C2)C3)C1)CC(C)(C)C` (stereo not shown) [Compound 235], for which the IL-1β % inhibition entry was “++++ (compound exhibited 75% or greater inhibition at 0.3 μM)”. The same measure, in the same setting: next, `O=C(CC12CC3CC(CC(C3)C1)C2)Nc1ncnc2c1CCN(C(=O)C(c1ccccc1)c1ccccc1)C2` [Compound 236]: “+++ (compound exhibited 50-75% inhibition at 0.3 μM)”; `O=C(CC12CC3CC(CC(C3)C1)C2)Nc1ncnc2c1CCN(C(=O)c1cccnc1)C2` [Compound 237]: “+ (compound exhibited 0-25% inhibition at 0.3 μM)”. As to `O=C(CC12CC3CC(CC(C3)C1)C2)Nc1ncnc2c1CCN(C(=O)C1CCCC1)C2` [Compound 238], the IL-1β % inhibition entry is given as “++++ (compound exhibited 75% or greater inhibition at 0.3 μM)”. Still for that read-out and setting: the entry for `COc1ccc(OC)c(CC(=O)N2CCc3c(ncnc3NC(=O)CC34CC5CC(CC(C5)C3)C4)C2)c1` [Compound 239] is “++ (compound exhibited 25-50% inhibition at 0.3 μM)”. Same read-out and setting: the entry for `COCC(=O)N1CCc2c(ncnc2NC(=O)CC23CC4CC(CC(C4)C2)C3)C1` [Compound 240] is “+ (compound exhibited 0-25% inhibition at 0.3 μM)”; for `O=C(CC12CC3CC(CC(C3)C1)C2)Nc1ncnc2c1CCN(C(=O)Cc1ccc(F)cc1)C2` [Compound 241] it is “+++ (compound exhibited 50-75% inhibition at 0.3 μM)”; for `N#Cc1cccc(C(=O)N2CCc3c(ncnc3NC(=O)CC34CC5CC(CC(C5)C3)C4)C2)c1` [Compound 242] it is “+++ (compound exhibited 50-75% inhibition at 0.3 μM)”. On the same count and under the same terms, the entry for `O=C(CC12CC3CC(CC(C3)C1)C2)Nc1ncnc2c1CCN(C(=O)c1ccc(C(F)(F)F)cc1)C2` [Compound 243] is “+++ (compound exhibited 50-75% inhibition at 0.3 μM)”; for `O=C(CC12CC3CC(CC(C3)C1)C2)Nc1ncnc2c1CCN(C(=O)C1CCCCC1)C2` [Compound 244] it is “++ (compound exhibited 25-50% inhibition at 0.3 μM)”; for `O=C(CC12CC3CC(CC(C3)C1)C2)Nc1ncnc2c1CCN(C(=O)c1ccc(Cl)c(Cl)c1)C2` [Compound 245] it is “+++ (compound exhibited 50-75% inhibition at 0.3 μM)”.
